Key:
Format in all cases: in vivo
Lolium multiflorum [1] = assay: Post-emergence herbicidal effect; conditions: one-leaf stage, 320 g/ha, assessed visually after about 3 weeks, 100% = plants have died
Procedure: (§1) LOLMU: Lolium multiflorum Seeds of monocotyledonous and dicotyledonous weed and crop plants are laid out in sandy loam soil in wood-fibre pots, covered with soil and cultivated in a greenhouse under good growth conditions. 2 to 3 weeks after sowing, the test plants are treated at the one-leaf stage. The compounds of the invention, formulated in the form of wettable powders (WP) or as emulsion concentrates (EC), are then sprayed onto the green parts of the plants as aqueous suspension or emulsion at a water application rate equating to 600 to 800 L/ha with addition of 0.2% wetting agent. After the test plants have been left to stand in the greenhouse under optimal growth conditions for about 3 weeks, the action of the preparations is assessed visually in comparison to untreated controls (herbicidal action in percent (%): 100% activity=the plants have died, 0% activity=like control plants).

Lolium multiflorum [2] = assay: Pre-emergence herbicidal effect; conditions: 320 g/ha, scored visually after 3 weeks vs untreated controls, 100% = plants have died
Text: (§2) Seeds of monocotyledonous and dicotyledonous weed plants and crop plants are laid out in sandy loam soil in wood-fibre pots and covered with soil. The compounds of the invention, formulated in the form of wettable powders (WP) or as emulsion concentrates (EC), are then applied to the surface of the covering soil as aqueous suspension or emulsion at a water application rate equating to 600 to 800 L/ha with addition of 0.2% wetting agent. After the treatment, the pots are placed in a greenhouse and kept under good growth conditions for the trial plants. The damage to the test plants is scored visually after a test period of 3 weeks by comparison with untreated controls (herbicidal activity in percent (%): 100% activity=the plants have died, 0% activity=like control plants). LOLMU: Lolium multiflorum

Alopecurus myosuroides [3] = assay: Pre-emergence herbicidal effect; conditions: 320 g/ha, scored visually after 3 weeks vs untreated controls, 100% = plants have died
Text: as §2, with “ALOMY: Alopecurus myosuroides” for “LOLMU: Lolium multiflorum”

Alopecurus myosuroides [4] = assay: Post-emergence herbicidal effect; conditions: one-leaf stage, 320 g/ha, assessed visually after about 3 weeks, 100% = plants have died
Procedure: as §1, with “ALOMY: Alopecurus myosuroides” for “LOLMU: Lolium multiflorum”

Setaria viridis [5] = assay: Pre-emergence herbicidal effect; conditions: 320 g/ha, scored visually after 3 weeks vs untreated controls, 100% = plants have died
Text: as §2, with “SETVI: Setaria viridis” for “LOLMU: Lolium multiflorum”

Avena fatua [6] = assay: Pre-emergence herbicidal effect; conditions: 320 g/ha, scored visually after 3 weeks vs untreated controls, 100% = plants have died
Text: as §2, with “AVEFA: Avena fatua” for “LOLMU: Lolium multiflorum”

Echinochloa crus-galli [7] = assay: Post-emergence herbicidal effect; conditions: one-leaf stage, 320 g/ha, assessed visually after about 3 weeks, 100% = plants have died
Procedure: as §1, with “ECHCG: Echinochloa crus-galli” for “LOLMU: Lolium multiflorum”

Echinochloa crus-galli [8] = assay: Pre-emergence herbicidal effect; conditions: 320 g/ha, scored visually after 3 weeks vs untreated controls, 100% = plants have died
Text: as §2, with “ECHCG: Echinochloa crus-galli” for “LOLMU: Lolium multiflorum”

Setaria viridis [9] = assay: Post-emergence herbicidal effect; conditions: one-leaf stage, 320 g/ha, assessed visually after about 3 weeks, 100% = plants have died
Procedure: as §1, with “SETVI: Setaria viridis” for “LOLMU: Lolium multiflorum”

Avena fatua [10] = assay: Post-emergence herbicidal effect; conditions: one-leaf stage, 320 g/ha, assessed visually after about 3 weeks, 100% = plants have died
Procedure: as §1, with “AVEFA: Avena fatua” for “LOLMU: Lolium multiflorum”

Row | SMILES | Post-emergence effectiveness LOLMU (herbicidal action in percent) (Lolium multiflorum [1]) | Pre-emergence action LOLMU (herbicidal activity in percent) (Lolium multiflorum [2]) | Pre-emergence action ALOMY (herbicidal activity in percent) (Alopecurus myosuroides [3]) | Post-emergence effectiveness ALOMY (herbicidal action in percent) (Alopecurus myosuroides [4]) | Pre-emergence action SETVI (herbicidal activity in percent) (Setaria viridis [5]) | Pre-emergence action AVEFA (herbicidal activity in percent) (Avena fatua [6]) | Post-emergence effectiveness ECHCG (herbicidal action in percent) (Echinochloa crus-galli [7]) | Pre-emergence action ECHCG (herbicidal activity in percent) (Echinochloa crus-galli [8]) | Post-emergence effectiveness SETVI (herbicidal action in percent) (Setaria viridis [9]) | Post-emergence effectiveness AVEFA (herbicidal action in percent) (Avena fatua [10])
1 | CCc1cc(C)cc(C)c1C1=C(OC(C)=O)C2CCOCCN2C1=O (stereo not drawn) [Ib-1-9] | 100% | 100% | 100% | 100% | 100% | 100% | 100% | 100% | 100% | 100%
2 | CCc1cccc(C)c1C1=C(OC(C)=O)C2CCOCCN2C1=O (stereo not drawn) [Ib-1-15] | 100% | 100% | 100% | 100% | 100% | – | 100% | 100% | 100% | 100%
3 | CCc1cc(C)cc(C)c1C1=C(OC(=O)OC)C2CCOCCN2C1=O (stereo not drawn) [Ib-1-6] | 100% | 100% | 100% | 100% | 100% | 100% | 100% | 100% | 100% | 100%
4 | CCc1cc(C)cc(CC)c1C1=C(OC(C)=O)C2CCOCCN2C1=O (stereo not drawn) [Ib-1-4] | 100% | 100% | 100% | 100% | 100% | 100% | 100% | 100% | 100% | 100%
5 | CCc1cc(Cl)cc(OC)c1C1=C(OC(=O)C(C)(C)C)C2=CCOCCN2C1=O [Ib-3-10] | 100% | 100% | 90% | 100% | 100% | – | 100% | 100% | 100% | 100%
6 | Cc1cc(C)c(C2=C(O)C3COCCCN3C2=O)c(C)c1 (racemic) [Ia-2-1] | 100% | 100% | 80% | 100% | – | – | 100% | – | 100% | 100%
7 | CCOC(=O)OC1=C(c2c(CC)cc(Cl)cc2OC)C(=O)N2CCOCCC12 (stereo not drawn) [Ib-1-17] | 100% | – | 100% | 100% | 100% | 100% | 100% | 100% | 100% | 100%
8 | CCc1cc(C)cc(C)c1C1=C(OC(C)=O)C2=CCOCCN2C1=O [Ib-3-4] | 80% | – | – | 90% | – | – | 90% | – | 100% | 80%

Source: patent publication US20190119298A1, “FUSED 3-PHENYLTETRAMIC ACID DERIVATIVES HAVING HERBICIDAL ACTION” (Bayer CropScience Aktiengesellschaft, priority 2016, published 2019)
